Results published in patent US9012431B2, “Boron-containing small molecules as anti-inflammatory agents” (Anacor Pharmaceuticals, Inc., priority 2008, dated 2015).

What was measured:
[1] = tested on: IL-10; assay: Cytokine assay, IL-10 release from PBMC; format: cell-based; conditions: human PBMC, 20 ug/mL PHA, supernatant at 48 hours
In short: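 Cryopreserved human PBMC were thawed and resuspended in RPMI 1640 with 10% FBS. Test compounds, diluted from 10 mM DMSO stocks, were applied in triplicate at 10, 1, 0.1 and 0.01 μM, and cytokine release was measured.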

[2] = tested on: Salmonella typhimurium strains TA98, TA100, TA1535, and TA1537; assay: Bacterial mutagenicity assay with/without Aroclor-induced S9 (Salmonella); format: cell-based; conditions: up to 5000 μg per plate; presence or absence of Aroclor-induced S9 liver fraction
[3] = tested on: Escherichia coli strain WP2 uvrA; assay: Bacterial mutagenicity assay with/without Aroclor-induced S9 (E. coli); format: cell-based; conditions: up to 5000 μg per plate; presence or absence of Aroclor-induced S9 liver fraction
[4] = tested on: IL-5 production by human PBMCs; assay: IL-5 production by LPS- or PHA-stimulated PBMCs; format: cell-based
[5] = tested on: IL-10 production by human PBMCs; assay: IL-10 production by LPS- or PHA-stimulated PBMCs; format: cell-based
[6] = tested on: T1, PDE3 Cat; assay: PDE3 inhibition; format: biochemical
T1 construct: Recombinant human PDE enzymes were expressed in a baculoviral system.; PDE isoforms tested include

[7] = molecular target: PDE5 (Homo sapiens, UniProt O76074); assay: PDE5 inhibition; format: biochemical
[8] = tested on: MCP-1 and PGE2; assay: Release of chemokine MCP-1 and PGE2; format: cell-based
From the text: This activity is explained in part by the inhibition of phosphodiesterase-4 (PDE-4).

[9] = tested on: shrews (Suncus murinus); conditions: shrew (Suncus murinus), in vivo, po

SMILES: N#Cc1ccc(Oc2ccc3c(c2)COB3O)cc1 [C17, 5-(4-cyanophenoxy)-1-hydroxy-1,3-dihydro-2,1-benzoxaborole]
- IC50 [1]: 4 to 10 µM
- mutagenic activity [2]: no mutagenic activity
- mutagenic activity [3]: no mutagenic activity
- IC50 ([4]; PBMC, LPS- and PHA-induced cytokine production by human PBMCs, read-out: IC50 IL-5 (Th2 cytokines)): 1 to 10 µM
- IL-5 inhibition, range in words ([4]; PBMCs): low micromolar range
- IC50 ([5]; PBMC, LPS- and PHA-induced cytokine production by human PBMCs, read-out: IC50 IL-10 (Th2 cytokines)): < 1 µM
- IL-10 inhibition, range in words ([5]; PBMCs): low micromolar range
- inhibition of PDE3 [6]: does not significantly inhibit
- IC50 ([6]; standard: Cilostazol): 1 to 10 µM
- inhibition of PDE5 [7]: does not significantly inhibit
- release of the chemokine MCP-1 and PGE2 [8]: inhibits the release
- no-observed-effect level (NOEL), emesis [9]: 10 mg/kg
